Reference: patent publication US20110015133A1, “PAX2 AND PAX8 AS TUMOUR TARGETS FOR IMMUNOLOGIC AND MOLECULAR TREATMENT STRATEGIES” (Charite-Universitatsmedizin Berlin, priority 2006, published 2011)

Tests used:
[1] = tested on: T2-cells loaded with peptide; assay: Cr release assay, peptide-loaded T2-cells; assay type: cell-based; conditions: T-cells induced against peptide 3496 in a renal cancer patient; 10:1 E:T; label = peptide loaded on T2
Description: (§1) A panel of colorectal cancer cell lines has been characterized expressing both PAX2 and PAX8 to function as targets for recognition by specific T-cells (Table IV).

[2] = tested on: colon cancer cell line SW480; assay: Cr release assay, colon cancer cell line; assay type: cell-based
Description: as §1

[3] = tested on: T-cells of a patient with renal cancer; assay: Induction of a T-cell response in a cancer patient; parameters: species or system human
[4] = tested on: CD3+CD8+ lymphocytes from patients with renal cell and ovarian cancer; assay: Screening of PAX8 candidate epitopes for recognition by T-cells (IFNγ/TNFα) in carcinoma patients; assay type: cell-based, human; conditions: for recognition by T-cells of patients in peptide pools: 4 pools of three peptides each, every peptide in two pools
Description: To identify T-cell epitopes, they were screened for recognition by T-cells from patients with renal cell and ovarian cancer which are PAX8 positive tumours secreting cytokine IFNγ or TNFα in response to PAX 8 or control HIV peptide. By using 4 pools of three peptides each, every peptide was present in two pools.

[5] = patient # 1 Ovarian, first line (IFNγ)
[6] = patient # 1 Ovarian, second line (TNFα)
[7] = patient # 2 Ovarian, first line (IFNγ)
[8] = patient # 2 Ovarian, second line (TNFα)
[9] = patient # 3 Ovarian, first line (IFNγ)
[10] = patient # 3 Ovarian, second line (TNFα)
[11] = patient # 4 Ovarian, first line (IFNγ)
[12] = patient # 4 Ovarian, second line (TNFα)
[13] = patient # 5 Ovarian, first line (IFNγ)
[14] = patient # 5 Ovarian, second line (TNFα)
[15] = patient # 6 Ovarian, first line (IFNγ)
[16] = patient # 6 Ovarian, second line (TNFα)
[17] = patient # 7 Renal cell, first line (IFNγ)
[18] = patient # 7 Renal cell, second line (TNFα)
[19] = patient # 8 Renal cell, first line (IFNγ)
[20] = patient # 8 Renal cell, second line (TNFα)
[21] = patient # 9 Renal cell, first line (IFNγ)
[22] = patient # 9 Renal cell, second line (TNFα)

With T L P G Y P P H V [Peptide 3496] the “specific cytolysis (killing) of peptide-loaded T2-cells” value [1] was 32%, the “cytolysis of SW480 inhibited by cold target” value ([2]; T-cells induced against peptide 3496, with cold target) was 10% and the “specific cytolysis of colon cancer cell line SW480” value ([2]; T-cells induced against peptide 3496 in a renal cancer patient) was 28%. For the same substance, the “induction of specific T-cells against the peptide” value [3] was “able to induce specific T-cells”.

“T L P G Y P P H I (TLPGYPPHI; listed as Homo sapiens) [Peptide 370-378]” was tested, and the “PAX8 candidate epitope recognized (both pools containing it reactive)” value (“PAX8 candidate epitope recognized” for short) [4, 5] was “no”, the “PAX8 candidate epitope recognized” value [4, 6] was “no” and the “PAX8 candidate epitope recognized” value [4, 7] was “no”. The “PAX8 candidate epitope recognized” value [4, 8] was “no”, the “PAX8 candidate epitope recognized” value [4, 9] was “no” and the “PAX8 candidate epitope recognized” value [4, 10] was “no”. For the same substance, the “PAX8 candidate epitope recognized” value [4, 11] was “no”, the “PAX8 candidate epitope recognized” value [4, 12] was “no” and the “PAX8 candidate epitope recognized” value [4, 13] was “no”. For the same substance, the “PAX8 candidate epitope recognized” value [4, 14] was “no”, the “PAX8 candidate epitope recognized” value [4, 15] was “no” and the “PAX8 candidate epitope recognized” value [4, 16] was “no”. For the same substance, the “PAX8 candidate epitope recognized” value [4, 17] was “no”, the “PAX8 candidate epitope recognized” value [4, 18] was “no” and the “PAX8 candidate epitope recognized” value [4, 19] was “no”. The “PAX8 candidate epitope recognized” value [4, 20] was “no”, the “PAX8 candidate epitope recognized” value [4, 21] was “no” and the “PAX8 candidate epitope recognized” value [4, 22] was “no”.

For “T L D D G K A T L (TLDDGKATL; listed as Homo sapiens) [Peptide 270-278]”, the “PAX8 candidate epitope recognized” value [4, 5] was “no”, the “PAX8 candidate epitope recognized” value [4, 6] was “no” and the “PAX8 candidate epitope recognized” value [4, 7] was “no”. The “PAX8 candidate epitope recognized” value [4, 8] was “no”, the “PAX8 candidate epitope recognized” value [4, 9] was “no” and the “PAX8 candidate epitope recognized” value [4, 10] was “no”. For the same substance, the “PAX8 candidate epitope recognized” value [4, 11] was “no”, the “PAX8 candidate epitope recognized” value [4, 12] was “no” and the “PAX8 candidate epitope recognized” value [4, 13] was “no”. The “PAX8 candidate epitope recognized” value [4, 14] was “no”, the “PAX8 candidate epitope recognized” value [4, 15] was “no” and the “PAX8 candidate epitope recognized” value [4, 16] was “no”. The “PAX8 candidate epitope recognized” value [4, 17] was “no”, the “PAX8 candidate epitope recognized” value [4, 18] was “no” and the “PAX8 candidate epitope recognized” value [4, 19] was “no”. For the same substance, the “PAX8 candidate epitope recognized” value [4, 20] was “no”, the “PAX8 candidate epitope recognized” value [4, 21] was “no” and the “PAX8 candidate epitope recognized” value [4, 22] was “no”.

“N L S T H Q T Y P V (NLSTHQTYPV; listed as Homo sapiens) [Peptide 288-298]” was tested, and the “PAX8 candidate epitope recognized” value [4, 5] was “no”, the “PAX8 candidate epitope recognized” value [4, 6] was “no” and the “PAX8 candidate epitope recognized” value [4, 7] was “no”. The “PAX8 candidate epitope recognized” value [4, 8] was “no”, the “PAX8 candidate epitope recognized” value [4, 9] was “no” and the “PAX8 candidate epitope recognized” value [4, 10] was “no”. For the same substance, the “PAX8 candidate epitope recognized” value [4, 11] was “no”, the “PAX8 candidate epitope recognized” value [4, 12] was “no” and the “PAX8 candidate epitope recognized” value [4, 13] was “no”. The “PAX8 candidate epitope recognized” value [4, 14] was “no”, the “PAX8 candidate epitope recognized” value [4, 15] was “no” and the “PAX8 candidate epitope recognized” value [4, 16] was “no”. The “PAX8 candidate epitope recognized” value [4, 17] was “no”, the “PAX8 candidate epitope recognized” value [4, 18] was “no” and the “PAX8 candidate epitope recognized” value [4, 19] was “no”. For the same substance, the “PAX8 candidate epitope recognized” value [4, 20] was “no”, the “PAX8 candidate epitope recognized” value [4, 21] was “no” and the “PAX8 candidate epitope recognized” value [4, 22] was “no”.

“T L T P S N T P L (TLTPSNTPL; listed as Homo sapiens) [Peptide 277-285]” was tested, and the “recognition by T-cells of patients in peptide pools” value [4] was “recognized in both pools”, the “PAX8 candidate epitope recognized” value [4, 5] was “no” and the “PAX8 candidate epitope recognized” value [4, 6] was “no”. For the same substance, the “PAX8 candidate epitope recognized” value [4, 7] was “no”, the “PAX8 candidate epitope recognized” value [4, 8] was “no” and the “PAX8 candidate epitope recognized” value [4, 9] was “no”. For the same substance, the “PAX8 candidate epitope recognized” value [4, 10] was “no”, the “PAX8 candidate epitope recognized” value [4, 11] was “no” and the “PAX8 candidate epitope recognized” value [4, 12] was “no”. The “PAX8 candidate epitope recognized” value [4, 13] was “no”, the “PAX8 candidate epitope recognized” value [4, 14] was “no” and the “PAX8 candidate epitope recognized” value [4, 15] was “no”. The “PAX8 candidate epitope recognized” value [4, 16] was “no”, the “PAX8 candidate epitope recognized” value [4, 17] was “no” and the “PAX8 candidate epitope recognized” value [4, 18] was “no”. The “PAX8 candidate epitope recognized” value [4, 19] was “no”, the “PAX8 candidate epitope recognized” value [4, 20] was “no” and the “PAX8 candidate epitope recognized” value [4, 21] was “no”. For the same substance, the “PAX8 candidate epitope recognized” value [4, 22] was “yes”.

In the case of “S L S S S A F L D L (SLSSSAFLDL; listed as Homo sapiens) [Peptide 323-333]”, the “recognition by T-cells of patients in peptide pools” value [4] is reported as “recognized in both pools”, the “PAX8 candidate epitope recognized” value [4, 5] is reported as “yes” and the “PAX8 candidate epitope recognized” value [4, 6] is reported as “no”. For the same substance, the “PAX8 candidate epitope recognized” value [4, 7] was “no”, the “PAX8 candidate epitope recognized” value [4, 8] was “no” and the “PAX8 candidate epitope recognized” value [4, 9] was “no”. The “PAX8 candidate epitope recognized” value [4, 10] was “no”, the “PAX8 candidate epitope recognized” value [4, 11] was “no” and the “PAX8 candidate epitope recognized” value [4, 12] was “no”. The “PAX8 candidate epitope recognized” value [4, 13] was “no”, the “PAX8 candidate epitope recognized” value [4, 14] was “no” and the “PAX8 candidate epitope recognized” value [4, 15] was “no”. For the same substance, the “PAX8 candidate epitope recognized” value [4, 16] was “no”, the “PAX8 candidate epitope recognized” value [4, 17] was “no” and the “PAX8 candidate epitope recognized” value [4, 18] was “no”. The “PAX8 candidate epitope recognized” value [4, 19] was “no”, the “PAX8 candidate epitope recognized” value [4, 20] was “no” and the “PAX8 candidate epitope recognized” value [4, 21] was “no”. The “PAX8 candidate epitope recognized” value [4, 22] was “no”.

“A L L S G R E M V (ALLSGREMV; listed as Homo sapiens) [Peptide 359-367]” was tested, and the “PAX8 candidate epitope recognized” value [4, 5] was “no”, the “PAX8 candidate epitope recognized” value [4, 6] was “no” and the “PAX8 candidate epitope recognized” value [4, 7] was “no”. The “PAX8 candidate epitope recognized” value [4, 8] was “no”, the “PAX8 candidate epitope recognized” value [4, 9] was “no” and the “PAX8 candidate epitope recognized” value [4, 10] was “no”. For the same substance, the “PAX8 candidate epitope recognized” value [4, 11] was “no”, the “PAX8 candidate epitope recognized” value [4, 12] was “no” and the “PAX8 candidate epitope recognized” value [4, 13] was “no”. For the same substance, the “PAX8 candidate epitope recognized” value [4, 14] was “no”, the “PAX8 candidate epitope recognized” value [4, 15] was “no” and the “PAX8 candidate epitope recognized” value [4, 16] was “no”. The “PAX8 candidate epitope recognized” value [4, 17] was “no”, the “PAX8 candidate epitope recognized” value [4, 18] was “no” and the “PAX8 candidate epitope recognized” value [4, 19] was “no”. The “PAX8 candidate epitope recognized” value [4, 20] was “no”, the “PAX8 candidate epitope recognized” value [4, 21] was “no” and the “PAX8 candidate epitope recognized” value [4, 22] was “no”.
